{"source": "patent US20140199401A1", "about": "“EXTENDED RELEASE PHARMACEUTICAL COMPOSITIONS OF FESOTERODINE” (CADILA HEALTHCARE LIMITED, priority 2011, published 2014)", "test": "Particle size data of fesoterodine fumarate", "assay_type": "physicochemical", "experimental": "(Particle size data of Fesoterodine fumarate: D10-47.3μ; D50-156μ; D90-293μ) • Procedure: Mixture of fesoterodine fumarate, microcrystalline cellulose, corn starch, lactose monohydrate, hypromellose, and povidone K 30 was lubricated with magnesium stearate and talc. The lubricated blend was then compressed into tablets. The tablets were finally coated with Opadry dispersion in purified water.\nThe formulation was prepared with the same excipients in the same quantity as used in Example 1. Only difference is in the particle size of fesoterodine fumarate used in that formulation. In this comparative example, particle size of fesoterodine fumarate is used such that D10-2.67μ; D50-34.48μ; D90-125.3μ.", "key": {"[1]": {"details": "fesoterodine fumarate used in Comparative Example 1"}, "[2]": {"details": "fesoterodine fumarate used in Example 1"}}, "note": "Structures can show the parent of a compound that is named as a salt.", "data": [{"compound": "CC(C)C(=O)Oc1ccc(CO)cc1[C@H](CCN(C(C)C)C(C)C)c1ccccc1", "note": "[Fesoterodine fumarate, 2-[(1R)-3-(diisopropylamino)-1-phenylpropyl]-4-(hydroxymethyl)phenyl isobutyrate]", "values": [{"measurement": "Particle size D10", "setting": "[1]", "value": 2.67, "unit": "μ"}, {"measurement": "Particle size D50", "setting": "[1]", "value": 34.48, "unit": "μ"}, {"measurement": "Particle size D90", "setting": "[1]", "value": 125.3, "unit": "μ"}, {"measurement": "Particle size D10", "setting": "[2]", "value": 47.3, "unit": "μ"}, {"measurement": "Particle size D50", "setting": "[2]", "value": 156, "unit": "μ"}, {"measurement": "Particle size D90", "setting": "[2]", "value": 293, "unit": "μ"}]}]}
